Measured values published in US20230219965A1 (KSQ Therapeutics, Inc., priority 2020, published 2023).
Like-named read-outs stand apart in the source and are kept apart here.

Tests used:
[1] = Liver microsomal metabolic stability, human liver microsomes (HLM); details: human, liver microsomes
[2] = system: Ub-PCNA levels in the nucleus of ES2 cells (USP1 activity); assay: ES2 Ub-PCNA immunofluorescence (IF) assay; format: cell-based; details: Homo sapiens, ES-2; ES2 cells, 3 hours, Ub-PCNA immunofluorescence; read-out: USP1 IC50 (Ub-PCNA)
Method: USP1 is a deubiquitinating enzyme that removes ubiquitin from mono-ubiquitinated Proliferating Cell Nuclear Antigen (Ub-PCNA). The levels of Ub-PCNA in the nucleus of cells can be used to assess the activity of USP1. An immunofluorescence assay can be established to monitor Ub-PCNA levels in the ovarian cancer cell line, ES2.
An assay can be performed by first plating 5000 ES2 cells per well in black 96 well plates (Corning #3904) and then incubating overnight at 37° C. and 5% CO2. Compounds, resuspended in DMSO, can be added to the cells, to a final DMSO concentration of 0.3%. Plates can be incubated at 37° C. and 5% CO2 for 3 hours.
Cells can be then fixed and stained by first removing the media from each plate and fixing the cells with −20° C. methanol for 5 minutes at room temperature. Fixation plates can be washed with Tris buffered saline with tween (Boston Bioproducts #IBB-855) 5 times for 5 minutes each. Plates can be blocked for 1 hour with 50 μl of Odyssey blocking buffer (Licor #327-50000) at room temperature with rocking. Block can be removed from all wells and 50 μl of primary antibody was added to each well. Ub-PCNA ab (Cell Signaling Technology #13439) can be diluted at 1:400 in Odyssey blocking buffer. Plates can be sealed and incubated overnight at 4° C. Primary antibodies can be removed from the plates and plates can be washed with Tris buffered saline with tween 5 times for 5 minutes. Plates can be stained for 1 hour at room temperature with rocking with 50 μl of secondary antibodies diluted 1:10,000 in Odyssey blocking buffer at room temperature (anti-rabbit Alexa 488). Antibodies can be removed from the plates and plates can be washed with Tris buffered saline with tween 3 times for 5 minutes. Plates can be washed once with DAPI (Chemometec #910-3012) stain diluted 1:5000 (Stock solution of 500 μg/ml) in tris buffered saline with tween for 5 minutes. DAPI stain can be removed and plates can be washed one additional time for 5 minutes with tris buffered saline with tween. Wash can be removed from the plate and 100 μl tris buffered saline with tween can be added back to all wells, Plates can be sealed with Foil seals or black plate seals and plates can be stored at 4° C. until they can be imaged.
Imaging of the plates can be performed by first locating the nuclei using the DAPI stain. A mask can be created by drawing a circle slightly smaller than each nucleus. Ub-PCNA intensities can be measured for each individual nucleus counted. A histogram of all Ub-PCNA nuclear intensities measured in untreated wells can be generated and a 95% cutoff can be established. This 95% cutoff can be used to determine the number of Positive cells that have Ub-PCNA values higher than the 95% cutoff. The number of positive cells can be expressed as a percentage by dividing by the total number of cells in the well. This percent positive value can be used to graph all data and to determine AC50 values.
USP1 is a deubiquitinating enzyme that removes ubiquitin from mono-ubiquitinated
Proliferating Cell Nuclear Antigen (Ub-PCNA). The levels of Ub-PCNA in the nucleus of cells was used to assess the activity of USP1. An immunofluorescence assay was established to monitor Ub-PCNA levels in the ovarian cancer cell line, ES2.
This assay was performed by first plating 5000 ES2 cells per well in black 96 well plates (Corning #3904) and then incubated overnight at 37° C. and 5% CO2. Compounds, resuspended in DMSO, were added to the cells, to a final DMSO concentration of 0.3%. Plates were incubated at 37° C. and 5% CO2 for 3 hours.
Cells were then fixed and stained by first removing the media from each plate and fixing the cells with −20° C. methanol for 5 minutes at room temperature. Following fixation plates were washed with Tris buffered saline with tween (Boston Bioproducts ABB-855) 5 times for 5 minutes each. Plates were blocked for 1 hour with 50μ.1 of Odyssey blocking buffer (Licor #327-50000) at room temperature with rocking. […]

[3] = Liver microsomal metabolic stability, rat liver microsomes (RLM); details: rat, liver microsomes, t1/2 (min) in RLM, 1 μM compound, 1 mg/mL microsomes, NADPH
USP1/UAF1 enzyme = USP1/UAF1 enzyme (Homo sapiens, UniProt O94782); assay: USP1/UAF1 deubiquitination assay (ubiquitin-rhodamine 110 substrate); format: biochemical; details: read-out: USP1 IC50 (Ub-Rho)
Chain of USP1/UAF1 enzyme (O94782 whole entry): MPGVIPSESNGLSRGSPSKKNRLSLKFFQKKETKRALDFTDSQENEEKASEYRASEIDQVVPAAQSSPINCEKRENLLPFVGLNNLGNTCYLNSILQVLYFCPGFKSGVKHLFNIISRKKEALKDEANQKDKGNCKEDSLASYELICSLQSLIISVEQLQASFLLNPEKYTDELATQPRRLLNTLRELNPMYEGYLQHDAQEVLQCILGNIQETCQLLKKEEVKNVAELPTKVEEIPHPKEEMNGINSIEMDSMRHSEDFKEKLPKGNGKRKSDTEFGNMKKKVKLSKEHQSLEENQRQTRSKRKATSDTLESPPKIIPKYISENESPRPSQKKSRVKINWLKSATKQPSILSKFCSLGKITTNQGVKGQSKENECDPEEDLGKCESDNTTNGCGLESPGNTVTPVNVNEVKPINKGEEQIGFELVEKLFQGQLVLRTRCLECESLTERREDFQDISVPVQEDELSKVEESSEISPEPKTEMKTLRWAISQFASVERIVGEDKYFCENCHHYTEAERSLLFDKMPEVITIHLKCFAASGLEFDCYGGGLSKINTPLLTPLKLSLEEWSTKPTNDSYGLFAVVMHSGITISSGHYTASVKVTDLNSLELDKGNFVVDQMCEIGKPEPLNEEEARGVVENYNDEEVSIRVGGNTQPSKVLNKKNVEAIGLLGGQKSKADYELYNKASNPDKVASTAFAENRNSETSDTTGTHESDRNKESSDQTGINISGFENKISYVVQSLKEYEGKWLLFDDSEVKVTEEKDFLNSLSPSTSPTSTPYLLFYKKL
Chain of USP1/UAF1 enzyme (Q8TAF3 whole entry partner): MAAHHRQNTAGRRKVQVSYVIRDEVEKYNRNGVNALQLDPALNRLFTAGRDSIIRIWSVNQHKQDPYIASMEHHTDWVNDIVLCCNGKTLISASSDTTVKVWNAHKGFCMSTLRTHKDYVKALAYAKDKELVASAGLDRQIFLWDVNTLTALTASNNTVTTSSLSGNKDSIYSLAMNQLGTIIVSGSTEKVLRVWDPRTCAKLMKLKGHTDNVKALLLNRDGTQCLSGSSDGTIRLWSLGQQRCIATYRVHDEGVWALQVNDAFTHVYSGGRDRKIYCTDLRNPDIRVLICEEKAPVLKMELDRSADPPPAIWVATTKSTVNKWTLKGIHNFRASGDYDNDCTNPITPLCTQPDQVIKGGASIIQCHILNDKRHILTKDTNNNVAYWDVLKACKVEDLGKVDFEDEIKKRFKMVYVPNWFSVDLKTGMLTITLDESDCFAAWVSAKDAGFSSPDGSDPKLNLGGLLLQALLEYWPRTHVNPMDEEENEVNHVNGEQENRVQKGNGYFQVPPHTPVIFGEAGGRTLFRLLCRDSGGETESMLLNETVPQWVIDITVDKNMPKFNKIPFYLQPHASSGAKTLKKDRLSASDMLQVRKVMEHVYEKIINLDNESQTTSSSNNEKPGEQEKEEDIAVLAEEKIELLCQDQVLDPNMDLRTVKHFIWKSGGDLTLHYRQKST
Outline: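 0.05 nM USP1/UAF1 was preincubated 10 min with compounds (dose response from 10 μM) in 50 mM Tris-HCl pH 7.8, 0.5 mM EDTA, 0.01% BSA, 1 mM DTT, 0.01% Tween-20. 150 nM ubiquitin-rhodamine 110 started the reaction, read kinetically 30 min at Ex480/Em540; IC50 by four-parameter fit versus no-enzyme and DMSO controls.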

[4] = ADME solubility determination in PBS at pH 2.0 and pH 7.4; format: physicochemical; details: phosphate buffered saline, 25 °C, thermodynamic from solid
Outline: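 Dried 10 mM DMSO stock residues taken up in PBS pH 7.4 or pH 2.0, shaken 24 h at 25° C. After centrifugation, supernatant quantified by LC-MS/MS against a standard of known concentration, with a dilution factor applied.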

[5] = pH 2, aqueous buffer, PBS pH 2.0, 25° C., read-out: Solubility at pH 2.0
[6] = pH 7.4, aqueous buffer, PBS pH 7.4, 25° C., read-out: Solubility at pH 7.4

| SMILES | half-life at 1 μM [1] [min] | IC50 [2] [nM] | half-life at 1 μM [3] [min] | IC50 (USP1/UAF1 enzyme) [nM] | solubility at 24 h [4, 5] [µM] | solubility at 24 h [4, 6] [µM] |
| --- | --- | --- | --- | --- | --- | --- |
| COc1ncnc(C2CC2)c1-c1cc2n(n1)CCC(=O)N2Cc1ccc(-c2nc(C(F)(F)F)cn2C)cc1 [Example 1, 2-(4-cyclopropyl-6-methoxypyrimidin-5-yl)-4-(4-(1-methyl-4-(trifluoromethyl)-1H-imidazol-2-yl)benzyl)-6,7-dihydropyrazolo[1,5-α]pyrimidin-5(4H)-one] | > 25 | 100 to 500 | > 25 | < 100 | ≥ 10 | < 10 |
| Cc1cnn(C(C)C)c1-c1cc2n(n1)CCC(=O)N2Cc1ccc(-c2nc(C(F)(F)F)cn2C)cc1 [Example 6, 2-(1-isopropyl-4-methyl-1H-pyrazol-5-yl)-4-(4-(1-methyl-4-(trifluoromethyl)-1H-imidazol-2-yl)benzyl)-6,7-dihydropyrazolo[1,5-a]pyrimidin-5(4H)-one] | < 25 | > 500 | < 25 | < 100 | ≥ 10 | ≥ 10 |
| Cc1cnn(C(C)C)c1-c1cc2n(n1)CCC(=O)N2Cc1ccc(-n2nc(C(F)(F)F)cc2C)cc1 [Example 10, 2-(1-isopropyl-4-methyl-1H-pyrazol-5-yl)-4-(4-(5-methyl-3-(trifluoromethyl)-1H-pyrazol-1-yl)benzyl)-6,7-dihydropyrazolo[1,5-a]pyrimidin-5(4H)-one] | < 25 | 100 to 500 | < 25 | < 100 | < 10 | < 10 |
| Cc1cnn(C(C)C)c1-c1cc2n(n1)CCC(=O)N2Cc1ccc(-c2nc(C(F)(F)F)nn2C)cc1 [Example 11, 2-(1-isopropyl-4-methyl-1H-pyrazol-5-yl)-4-(4-(1-methyl-3-(trifluoromethyl)-1H-1,2,4-triazol-5-yl)benzyl)-6,7-dihydropyrazolo[1,5-a]pyrimidin-5(4H)-one] | < 25 | > 500 | < 25 | > 500 | ≥ 10 | < 10 |
| COc1cc(C(F)(F)F)nn1-c1ccc(CN2C(=O)CCn3nc(-c4c(C)cnn4C(C)C)cc32)cc1F [Example 12, 4-(3-fluoro-4-(5-methoxy-3-(trifluoromethyl)-1H-pyrazol-1-yl)benzyl)-2-(1-isopropyl-4-methyl-1H-pyrazol-5-yl)-6,7-dihydropyrazolo[1,5-a]pyrimidin-5(4H)-one] | < 25 | 100 to 500 | < 25 | < 100 | < 10 | < 10 |

Further lines, results first:

| half-life at 1 μM [1] [min] | IC50 [2] [nM] | half-life at 1 μM [3] [min] | IC50 (USP1/UAF1 enzyme) [nM] | solubility at 24 h [4, 5] [µM] | solubility at 24 h [4, 6] [µM] | SMILES |
| --- | --- | --- | --- | --- | --- | --- |
| > 25 | 100 to 500 | > 25 | < 100 | < 10 | < 10 | COc1ncnc(C2CC2)c1-c1cc2n(n1)CCC(=O)N2Cc1ccc(-c2nc(C(F)(F)F)cn2C)c(F)c1 [Example 2, 2-(4-cyclopropyl-6-methoxypyrimidin-5-yl)-4-(3-fluoro-4-(1-methyl-4-(trifluoromethyl)-1H-imidazol-2-yl)benzyl)-6,7-dihydropyrazolo[1,5-a]pyrimidin-5(4H)-one] |
| > 25 | 100 to 500 | > 25 | < 100 | < 10 | < 10 | COc1ncnc(C2CC2)c1-c1cc2n(n1)CCC(=O)N2Cc1ccc(-n2nc(C(F)(F)F)cc2OC)c(F)c1 [Example 7, 2-(4-cyclopropyl-6-methoxypyrimidin-5-yl)-4-(3-fluoro-4-(5-methoxy-3-(trifluoromethyl)-1H-pyrazol-1-yl)benzyl)-6,7-dihydropyrazolo[1,5-a]pyrimidin-5(4H)-one] |
| < 25 | < 100 | < 25 | < 100 | ≥ 10 | ≥ 10 | CCn1cc(C(F)(F)F)nc1-c1ccc(CN2C(=O)CCn3nc(-c4c(C)cnn4C(C)C)cc32)cc1 [Example 9, 4-(4-(1-ethyl-4-(trifluoromethyl)-1H-imidazol-2-yl)benzyl)-2-(1-isopropyl-4-methyl-1H-pyrazol-5-yl)-6,7-dihydropyrazolo[1,5-a]pyrimidin-5(4H)-one] |
| > 25 | < 100 | > 25 | < 100 | < 10 | < 10 | COc1cc(C(F)(F)F)nn1-c1ccc(CN2C(=O)CCn3nc(-c4c(Cl)cnn4C(C)C)cc32)cc1F [Example 14, 2-(4-chloro-1-isopropyl-1H-pyrazol-5-yl)-4-(3-fluoro-4-(5-methoxy-3-(trifluoromethyl)-1H-pyrazol-1-yl)benzyl)-6,7-dihydropyrazolo[1,5-a]pyrimidin-5(4H)-one] |
| > 25 | < 100 | < 25 | < 100 | < 10 | < 10 | CC(C)n1ncc(Cl)c1-c1cc2n(n1)CCC(=O)N2Cc1ccc(-c2nc(C(F)(F)F)cn2C)c(F)c1 [Example 16, 2-(4-chloro-1-isopropyl-1H-pyrazol-5-yl)-4-(3-fluoro-4-(1-methyl-4-(trifluoromethyl)-1H-imidazol-2-yl)benzyl)-6,7-dihydropyrazolo[1,5-a]pyrimidin-5(4H)-one] |
| > 25 | < 100 | > 25 | < 100 | < 10 | < 10 | COc1ncnc(C2CC2)c1-c1cc2n(n1)CCC(=O)N2Cc1ccc(-c2nc(C(F)(F)F)cn2C(C)C)c(F)c1 [Example 18, 2-(4-cyclopropyl-6-methoxypyrimidin-5-yl)-4-(3-fluoro-4-(1-isopropyl-4-(trifluoromethyl)-1H-imidazol-2-yl)benzyl)-6,7-dihydropyrazolo[1,5-a]pyrimidin-5(4H)-one] |
| > 25 | < 100 | > 25 | < 100 | < 10 | < 10 | CC(C)n1cc(C(F)(F)F)nc1-c1ccc(CN2C(=O)CCn3nc(-c4c(Cl)cnn4C(C)C)cc32)cc1F [Example 20, 2-(4-chloro-1-isopropyl-1H-pyrazol-5-yl)-4-(3-fluoro-4-(1-isopropyl-4-(trifluoromethyl)-1H-imidazol-2-yl)benzyl)-6,7-dihydropyrazolo[1,5-a]pyrimidin-5(4H)-one] |
